For one molecule, Activity results are on record in ChEMBL document CHEMBL1143685, “Sulfated glucosamine inhibits MMP-2 and MMP-9 expressions in human fibrosarcoma cells” (Bioorg Med Chem, 2007).

The test system of data set [1] is HT-1080. Kind of data set: Toxicity against human HT1080 cells assessed as cell viability after 24 hrs by MTT assay. The class given is cell-based. The settings on record: ht-1080, 24 h.
Data set [2] concerns HT-1080. The data set is described as follows: Inhibition of MMP2 expression in human HT1080 cells. Format: functional, cell-based.
The next data set has as its system MRC5. Kind of data set: Toxicity against human MRC5 cells assessed as cell viability after 24 hrs by MTT assay. The class given is cell-based. The settings on record: mrc5, 24 h.
The test system of data set [3] is HT-1080. Kind of data set: Inhibition of MMP9 expression in human HT1080 cells. Format: functional, cell-based.
Data set [4] deals with HT-1080. Kind of data set: Inhibition of NF-kappaB promoter activity in human HT1080 cells. The class given is functional, cell-based.
Data set [5] concerns HT-1080. The data set is described as follows: Inhibition of PMA-stimulated activator protein-1 promotor activity in human HT1080 cells. The class given is functional, cell-based.

Active and inactive are the calls of the source. The rule behind the calls is not given here.

Consider `N[C@@H](C=O)[C@@H](O)[C@H](O)[C@H](O)COS(=O)(=O)O`, for which the Activity result in the data set with HT-1080 [1] was “Active”; in the data set on HT-1080 [2], “Dose-dependent effect”; with MRC5, “Active”; in the data set with HT-1080 [3], “Dose-dependent effect”; in the data set with HT-1080 [4] it was “Dose-dependent effect”. Besides, the result with HT-1080 [5] was inactive.
